Laboratory results as given in patent US8324152B2, “Composition for the treatment of atherosclerosis” (Institute National de la Sante et de la Recherche Medicale …, priority 2005, dated 2012).
No end group written: not given here.

What was measured:
Male ApoE −/− mice = experiment: Atherosclerotic lesion size (morphometric analysis) in apoE-/- mice after pump delivery of peptide; assay type: in vivo; conditions: Example 2; apoE null mice; result in words
Experimental: (§1) Male ApoE −/− mice (B&M, RY, DENMARK, 11 week old) were implanted subcutaneously with mini-osmotic pumps (ALZET1002, DURECT CORPORATION) diffusing PBS or 10 μg of P210, MDA-P210 or P240 per day and for 14 day, at a rate of 0.25 μl/h.
Then, the mice are kept for another 6 weeks and killed at 19 weeks of age.
Total Plasma and HDL cholesterol were measured with a commercially available cholesterol kit (SIGMA) according to the manufacturer's instructions. Morphometric and immuno-histochemical studies were performed in the aortic sinus and in the thoracic aorta (spanning from the brachiocephalic artery to the renal arteries). Collagen fibers were stained with Sirius red. Immuno-histochemical analysis were then performed. The following primary antibodies were used: MOMA-2 (BIOSOURCE INTERNATIONAL) as a specific marker for macrophages; anti-mouse CD3− (SANTA CRUZ); anti-smooth muscle actin, alkaline phosphatase conjugate, clone 1A4 (SIGMA); and anti-IL-10 antibody (SANTA CRUZ). Morphometric analysis was performed with an automated image processor (HISTOLAB, MICROVISION).
Male apoE−/− mice (B&M, RY, DENMARK, 11 week old) were implanted subcutaneously with mini-osmotic pumps (ALZET1002, DURECT CORPORATION) diffusing phosphate buffer saline (PBS) as control or 10 μg per day of P210, MDA-P210 or P240, for 14 days, at a rate of […]. An additional group of mice receiving ovalbumin (OVA) peptide (323-339) served as control.
Then, the mice were kept for another 6 or 10 weeks and killed at 19 or 23 weeks of age.
Male apoE−/− mice (11-week old) were implanted subcutaneously with mini-osmotic pumps (ALZET1002) diffusing phosphate buffer saline (PBS), as control, or 10 μg per day of P210, MDA-P210 or P240, for 14 days at a rate of 0.25 μl/h. An additional group of mice receiving ovalbumin (OVA) peptide (323-339) served as control. Mice were kept for another 6 weeks and killed at 19 weeks of age. […]

[1] = system: Native or MDA-modified peptides 210 and 240; experiment: Determination of antibody titers against peptide (serum IgG/IgM ELISA); assay type: in vivo, mice; conditions: Example 1; mouse serum 1:50, 405 nm
Experimental: as §1
Native or MDA-modified peptides 210 and 240 were used for coating (10 μg/ml of each in PBS pH 7.4) microtiter plates (Nunc MaxiSorp, Nunc, Roskilde, Denmark) in an overnight incubation at 4° C. Coated plates were washed with PBS with 0.05% Tween-20 and thereafter blocked with SuperBlock in Tris-buffered saline (TBS, Pierce) for 5 minutes at room temperature followed by an incubation of mouse serum diluted 1:50 in TBS-0.05% Tween-20 for 2 hours at room temperature and overnight at 4° C. After rinsing, depositions were detected by using biotinylated goat anti-mouse IgM or IgG antibodies (JACKSON IMMUNORESEARCH, West Grove, Pa.) that were incubated for 2 hours at room temperature. The plates were washed and bound biotinylated antibodies were detected by alkaline phosphatase-conjugated streptavidin (SIGMA). The color reaction was developed using phosphatase substrate kit (Pierce). The absorbency at 405 nm was measured after 1 hour of incubation at room temperature. Mean values were calculated after subtraction of background absorbance.

CD4+ cells = experiment: Cell proliferation assay: CD4+ cells with CD11c+ dendritic cells from treated mice, [3H]-thymidine; assay type: cell-based; conditions: Example 1; anti-CD3 3 μg/ml, 72 hours; PBS control 20 000 cpm
Text: T cells were purified from spleen or from draining lymph nodes by negative selection with anti-CD11b (M1/70), anti B220, anti-CD8 and anti-NK cells (DX5) followed by depletion with a mixture of magnetic beads coated with anti-rat Ig (DYNAL). CD11c+ dendritic cells were purified by positive selection with anti-CD11c using directly conjugated anti-CD11c beads (clone N418; MILTENYI BIOTEC).
For the cell proliferation assay, purified CD4+ cells (50 000) were mixed with CD11c+ cells (10 000) and anti-CD3 antibodies (3 μg/ml) for 72 hours. [3H]-Thymidine (1 μCi; PERKIN ELMER) was added for the last 18 hours of cell culture.

Substance	Effect of continuous administration on atherosclerotic plaques, associated inflammation and plaque composition (Male ApoE −/− mice)	IgG against MDA-P210 [1]	IgG against MDA-P240 [1]	IgG against P210 [1]	IgM against MDA-P210 [1]	IgM against MDA-P240 [1]	IgM against P210 [1]	Proliferation of CD4+ cells from control mice in the presence of CD11c+ cells from treated mice (CD4+ cells)
ISQAVHAAHAEINEAGR (peptide derived from ovalbumin) [Control: chicken ovalbumin (OVA) peptide, amino acids 323 to 339, reference compound]	No significant modification							
KTTKQSFDLSVKAQYKKNKH (peptide derived from apolipoprotein B) [P210, Human apoB-100 derived peptide, amino acids 3136 to 3155]	diminution of the atherosclerotic plaques and of associated inflammation	1.45±0.49 absorbance units	0.080±0.038 absorbance units	0.81±0.22 absorbance units	1.38±0.04 absorbance units	1.80±0.41 absorbance units	1.17±0.22 absorbance units	
MDA-P210: Malondialdehyde (MDA)-modified human apoB-100 derived peptide; native P210 modified by 0.5 mol/L MDA for 3 hours at 37° C. (KTTKQSFDLSVKAQYKKNKH; not fully specified)	diminution of the atherosclerotic plaques and of associated inflammation	0.83±0.28 absorbance units	0.041±0.007 absorbance units	0.51±0.07 absorbance units	1.30±0.13 absorbance units	1.24±0.40 absorbance units	0.55±0.25 absorbance units	9500 cpm
FPDLGQEVALNANTKNQKIR (peptide derived from apolipoprotein B) [P240, Human apoB-100 derived peptide, amino acids 3586 to 3605]		0.62±0.11 absorbance units	0.037±0.007 absorbance units	0.47±0.09 absorbance units	0.79±0.45 absorbance units	1.34±0.52 absorbance units	0.79±0.45 absorbance units	
